Laboratory results reported in patent US20220324817A1, “QUINAZOLINE PRODRUGS FOR THE TREATMENT OF VIRAL INFECTIONS AND FURTHER DISEASES” (Janssen Sciences Ireland Unlimited Company, priority 2019, published 2022).

Columns and labels:
Type in all cases: in vitro ADME
[1] = system: P-glycoprotein (human MDR1); test: Permeability and efflux in vitro in MDCK-MDR1 cell line; settings: dog, MDCK-MDR1 cells, in absence of GF120918
Method: (§1) Intrinsic clearance (CLint). CLint was determined in rat and human liver microsomes. Incubations were performed at 37° C., at a concentration of 1 μM of compound, and a microsomal protein concentration of 1 mg/mL. Serial samples were removed at intervals of up to 60 min and analyzed for the concentration of compound to determine its intrinsic clearance rate. Compound was incubated in rat and human hepatocytes (10^6 cells/mL) at 1 μM for 0, 10, 20, 40, 60 and 120 min. Serial samples were removed at intervals of up to 120 min and analyzed for the concentration of compound to determine its intrinsic clearance rate. Permeability and Efflux in vitro. The in vitro permeability and potential to be transported by P-glycoprotein (P-gp) was determined using an MDCK cell line transfected with human MDR1 (P-glycoprotein). […] Permeability in the A→B direction in absence and presence of GF120918 and in the B→A direction in absence of GF120918 was measured by monitoring the appearance of the test compound on the opposite side of the membrane using a specific LC-MS/MS method. The efflux ratio (B→*A-GF120918/A→B-GF120918) was calculated to determine whether the test compound was a P-gp substrate. […] Plasma stability is measured in rat and human plasma for 7 or 24 h at 37° C. […] Samples were analyzed by LC-MS/MS (without internal standard). […] Half-life (t1/2 in hours) is calculated from those data. […]

[2] = Intrinsic clearance in rat liver microsomes; settings: 37° C., 1 μM compound, 1 mg/mL microsomal protein
Method: as §1

[3] = Intrinsic clearance in human liver microsomes; settings: 37° C., 1 μM compound, 1 mg/mL microsomal protein
Method: as §1

Structure (SMILES) | Papp A→B [1] | efflux ratio ([1]; read-out: Efflux ratio B -> A/A -> B) | microsomal CLint at 1 μM [2] | microsomal CLint at 1 μM [3]
CCCC[C@H](CO)Nc1nc(NC(=O)OCC)nc2c(C)cccc12 [Compound 1, ethyl (R)-(4-((1-hydroxyhexan-2-yl)amino)-8-methylquinazolin-2-yl)carbamate] | 8.22 ×10⁻⁶ cm/s | 4.5 | 109 µL/min/mg | 47 µL/min/mg
CCCC[C@H](COC(=O)C(C)C)Nc1nc(NC(=O)C(C)C)nc2c(C)cccc12 [Compound 2, (R)-2-((2-isobutyramido-8-methylquinazolin-4-yl)amino)hexyl isobutyrate] | – | – | 84 µL/min/mg | –
